Laboratory results reported in ChEMBL document CHEMBL3779887, “Robenidine Analogues as Gram-Positive Antibacterial Agents” (J Med Chem, 2016).
In brackets after ≈: the same amount, converted by molar mass. Activity calls are given as the source filed them. The rule behind the calls is not given here.

Legend:
[1] = Selectivity index, ratio of GI50 for human HEL299 cells to MIC50 for methicillin-sensitive Staphylococcus aureus clinical isolate; assay type: functional, HEL 299
[2] = tested on: Enterococcus; assay: Antibacterial activity against vancomycin-resistant Enterococcus after 20 to 24 hrs; assay type: functional
[3] = tested on: Staphylococcus aureus; assay: Bactericidal activity against Methicillin-sensitive Staphylococcus aureus ATCC 29213 assessed as log reduction in bacterial cell number at 4 times MIC after 24 hrs by time kill curve analysis; assay type: functional, organism-based
[4] = Selectivity index, ratio of GI50 for human HEL299 cells to MIC50 for methicillin-resistant Staphylococcus aureus clinical isolate; assay type: functional, HEL 299
[5] = tested on: Escherichia coli; assay: Antibacterial activity against Escherichia coli ATCC 25922 after 20 to 24 hrs; assay type: functional
[6] = Intrinsic clearance in human liver microsomes assessed per mg of protein; assay type: ADME; settings: read-out: CLH
[7] = tested on: Staphylococcus aureus; assay: Bactericidal activity against methicillin-sensitive Staphylococcus aureus ATCC 29213 assessed as log reduction in bacterial cell number at MIC after 8 hrs by time-kill curve analysis; assay type: functional
[8] = tested on: Staphylococcus aureus; assay: Antibacterial activity against methicillin-sensitive Staphylococcus aureus ATCC 49775 after 20 to 24 hrs in presence of 50% heat inactivated bovine serum; assay type: functional
[9] = tested on: Staphylococcus aureus; assay: Antibacterial activity against methicillin-sensitive Staphylococcus aureus ATCC 6538 after 20 to 24 hrs; assay type: functional
[10] = tested on: Pseudomonas aeruginosa; assay: Antibacterial activity against Pseudomonas aeruginosa ATCC 27853 after 20 to 24 hrs in presence of polymyxin B nonapeptide; assay type: functional
[11] = Toxicity in sheep erythrocytes assessed as hemolysis after 30 mins; assay type: cell-based, Ovis aries; settings: erythrocyte, 0.5 h
[12] = Toxicity in po dosed rat; assay type: organism-based; settings: in vivo
[13] = tested on: Staphylococcus aureus; assay: Antibacterial activity against methicillin-sensitive Staphylococcus aureus ATCC 25923 after 20 to 24 hrs; assay type: functional
[14] = tested on: Staphylococcus aureus; assay: Bactericidal activity against […] Staphylococcus aureus clinical isolate USA300 assessed as log reduction in bacterial cell number at 4 times MIC after 24 hrs by time-kill curve analysis; assay type: functional, organism-based
[15] = tested on: Staphylococcus aureus; assay: Bactericidal activity against methicillin-sensitive Staphylococcus aureus ATCC 6538 after 24 and 48 hrs; assay type: functional
[16] = Cytotoxicity against human HEL299 cells after 24 hrs by WST-1 based colorimetric assay; assay type: cell-based, HEL 299
[17] = tested on: Escherichia coli; assay: Ratio of MIC90 for Escherichia coli ATCC 25922 to MIC90 for Escherichia coli ATCC 25922 in presence of polymyxin B nonapeptide; assay type: functional
[18] = Solubility of the compound at pH 2; assay type: physicochemical; settings: buffer
[19] = tested on: Staphylococcus aureus; assay: Bactericidal activity against methicillin-resistant Staphylococcus aureus clinical isolate after 24 and 48 hrs; assay type: functional
[20] = tested on: Babesia microti; assay: Antiprotozoal activity against Babesia microti ATCC PRA-99 infected in BALB/c mouse assessed as suppression of parasitemia at 25 and 50 mg/kg, administered 4 times daily; assay type: functional
[21] = tested on: Staphylococcus aureus; assay: Ratio of MBC for methicillin-sensitive Staphylococcus aureus ATCC 6538 to MIC90 for methicillin-sensitive Staphylococcus aureus ATCC 6538; assay type: functional
[22] = tested on: Staphylococcus aureus; assay: Ratio of MBC for methicillin-sensitive Staphylococcus aureus ATCC 49775 to MIC90 for methicillin-sensitive Staphylococcus aureus ATCC 49775; assay type: functional
[23] = tested on: Staphylococcus aureus; assay: Bactericidal activity against […] Staphylococcus aureus clinical isolate USA300 assessed as log reduction in bacterial cell number at 2 times MIC after 8 hrs by time-kill curve analysis; assay type: functional
[24] = Toxicity in po dosed female rabbit; assay type: organism-based, Oryctolagus cuniculus; settings: in vivo
[25] = tested on: Staphylococcus aureus; assay: Ratio of MBC for methicillin-sensitive Staphylococcus aureus ATCC 25923 to MIC90 for methicillin-sensitive Staphylococcus aureus ATCC 25923; assay type: functional
[26] = Selectivity index, ratio of GI50 for human HepG2 cells to MIC50 for methicillin-resistant Staphylococcus aureus clinical isolate; assay type: functional
[27] = tested on: Staphylococcus aureus; assay: Bactericidal activity against […] Staphylococcus aureus clinical isolate USA300 assessed as log reduction in bacterial cell number at 4 times MIC after 8 hrs by time-kill curve analysis; assay type: functional
[28] = tested on: Staphylococcus aureus; assay: Bactericidal activity against […] Staphylococcus aureus clinical isolate USA300 assessed as log reduction in bacterial cell number at 2 times MIC after 24 hrs by time-kill curve analysis; assay type: functional, organism-based
[29] = tested on: Staphylococcus aureus; assay: Bactericidal activity against […] Staphylococcus aureus clinical isolate USA300 assessed as log reduction in bacterial cell number at MIC after 24 hrs by time-kill curve analysis; assay type: functional, organism-based
[30] = tested on: Staphylococcus aureus; assay: Bactericidal activity against methicillin-sensitive Staphylococcus aureus clinical isolate USA300 assessed as log reduction in bacterial cell number at MIC after 8 hrs by time-kill curve analysis; assay type: functional
[31] = tested on: Staphylococcus aureus; assay: Bactericidal activity against methicillin-sensitive Staphylococcus aureus ATCC 29213 assessed as log reduction in bacterial cell number at 2 times MIC after 8 hrs by time-kill curve analysis; assay type: functional
[32] = tested on: Staphylococcus aureus; assay: Bactericidal activity against methicillin-sensitive Staphylococcus aureus ATCC 29213 after 24 and 48 hrs; assay type: functional
[33] = tested on: Staphylococcus aureus; assay: Bactericidal activity against Methicillin-sensitive Staphylococcus aureus ATCC 29213 assessed as log reduction in bacterial cell number at 2 times MIC after 24 hrs by time kill curve analysis; assay type: functional, organism-based
[34] = tested on: Staphylococcus aureus; assay: Bactericidal activity against Methicillin-sensitive Staphylococcus aureus ATCC 29213 assessed as log reduction in bacterial cell number at 8 times MIC after 24 hrs by time-kill curve analysis; assay type: functional, organism-based
[35] = Half life of compound in human liver microsomes; assay type: ADME
[36] = tested on: Staphylococcus aureus; assay: Bactericidal activity against […] Staphylococcus aureus clinical isolate USA300 assessed as log reduction in bacterial cell number at 8 times MIC after 24 hrs by time-kill curve analysis; assay type: functional, organism-based
[37] = Metabolic stability in human liver microsomes assessed as compound loss after 60 mins; assay type: ADME; settings: read-out: Drug degradation
[38] = tested on: Pseudomonas aeruginosa; assay: Ratio of MIC90 for Pseudomonas aeruginosa ATCC 27853 to MIC90 for Pseudomonas aeruginosa ATCC 27853 in presence of polymyxin B nonapeptide; assay type: functional
[39] = tested on: Staphylococcus aureus; assay: Antibacterial activity against methicillin-resistant Staphylococcus aureus clinical isolate after 20 to 24 hrs; assay type: functional
[40] = tested on: Staphylococcus aureus; assay: Antibacterial activity against methicillin-resistant Staphylococcus aureus after 20 to 24 hrs; assay type: functional
[41] = tested on: Staphylococcus aureus; assay: Bactericidal activity against methicillin-sensitive Staphylococcus aureus ATCC 25923 after 24 and 48 hrs; assay type: functional
[42] = tested on: Staphylococcus aureus; assay: Inhibition of biofilm formation in methicillin-resistant Staphylococcus aureus assessed as log reduction at > 43.2 uM after 24 hrs by MBEC assay relative to control; assay type: functional
[43] = tested on: Staphylococcus aureus; assay: Bactericidal activity against Methicillin-sensitive Staphylococcus aureus ATCC 29213 assessed as log reduction in bacterial cell number at MIC after 8 hrs by time kill curve analysis
[44] = Toxicity in po dosed male rabbit; assay type: organism-based, Oryctolagus cuniculus; settings: in vivo
[45] = Lipophilicity, logD of the compound at pH 7.4; assay type: physicochemical; settings: buffer
[46] = tested on: Staphylococcus aureus; assay: Bactericidal activity against […] Staphylococcus aureus clinical isolate USA300 assessed as log reduction in bacterial cell number at 8 times MIC after 8 hrs by time-kill curve analysis; assay type: functional
[47] = tested on: Staphylococcus aureus; assay: Inhibition of biofilm formation in methicillin-resistant Staphylococcus aureus after 24 hrs by MBEC assay; assay type: functional

## N=C(N/N=C/c1ccc(Cl)cc1)N/N=C/c1ccc(Cl)cc1 [ROBENIDINE]
[1]
  Selectivity Index: 2
[2]
  MIC: 4.7 µM (≈ 1.57 µg/mL)
[3]
  Activity: inactive
[4]
  Selectivity Index: 2
[5]
  MIC: > 400 µM
[6]
  microsomal CLint: < 7 µL/min/mg
[7]
  Activity: >=4 log10CFU/ml
[8]
  MIC90: > 250 µM
[9]
  MIC90: 5.4 µM (≈ 1.8 µg/mL)
[10]
  MIC90: 21.6 µM
[11]
  Activity: >= 173 uM
[12]
  LD50: 3000 mg/kg
[13]
  MIC90: 5.4 µM (≈ 1.8 µg/mL)
[14]
  Activity: inactive
[15]
  MBC: 5.4 µM (≈ 1.8 µg/mL)
[16]
  GI50 at 24 h: 17.7 µM
[17]
  Ratio: 10
[18]
  solubility: 6.3 µg/mL (≈ 18.9 µM)
[19]
  MBC: 5.4 µM (≈ 1.8 µg/mL)
[20]
  inhibition (INH): 100%
[21]
  Ratio: 1
[22]
  Ratio: 1
[23]
  Activity: >=4 log10CFU/ml
[24]
  LD50: 2900 mg/kg
[25]
  Ratio: 1
[26]
  Selectivity Index: 2
[27]
  Activity: >=4 log10CFU/ml
[28]
  Activity: inactive
[29]
  Activity: inactive
[30]
  Activity: >=4 log10CFU/ml
[31]
  Activity: >=4 log10CFU/ml
[32]
  MBC: 5.4 µM (≈ 1.8 µg/mL)
[33]
  Activity: inactive
[34]
  Activity: inactive
[35]
  half-life: > 4.12 h
[36]
  Activity: inactive
[37]
  metabolised at 1 h: < 15%
[38]
  Ratio: 10
[39]
  MIC90: 5.4 µM (≈ 1.8 µg/mL)
[40]
  MIC: 8.1 µM (≈ 2.71 µg/mL)
[41]
  MBC: 5.4 µM (≈ 1.8 µg/mL)
[42]
  FC: <=3
[43]
  Activity: inactive
[44]
  LD50: 1500 mg/kg
[45]
  logD: 4.5
[46]
  Activity: >=4 log10CFU/ml
[47]
  INH: >43.2 µM
